Results taken from US9579303B2, “Compositions containing polysaccharides” (DSM IP ASSETS B.V., priority 2005, dated 2017).

Tests used:
[1] = Granule size distribution by sieve analysis; type: physicochemical
[2] = Flowability: time for 100 g to flow through an 11-mm funnel orifice; type: physicochemical; details: 100 g through an 11-mm orifice of a funnel
Method: The flowability was determined by the time needed to have 100 g of genistein crystals or genistein granules flowing through an 11-mm orifice of a funnel.

Granule Particle Size Distribution <150 μm ([1]; sieve fraction <150 μm): 7.2% | Granule Particle Size Distribution >150 μm ([1]; sieve fraction >150 μm): 28.2% | Granule Particle Size Distribution >250 μm ([1]; sieve fraction >250 μm): 50% | Granule Particle Size Distribution >425 μm ([1]; sieve fraction >425 μm): 14.5% | Granule Particle Size Distribution >600 μm ([1]; sieve fraction >600 μm): 0% | Granule Particle Size Distribution >800 μm ([1]; sieve fraction >800 μm): 0% | Granule Particle Size Distribution >850 μm ([1]; sieve fraction >850 μm): 0.1% | Flowability [2]: No flow
Structure (SMILES): O=c1c(-c2ccc(O)cc2)coc2cc(O)cc(O)c12 [Genistein crystal, genistein]
